Source: patent US20150057226A1, “METHOD FOR TREATMENT OF LABOR ARREST” (DILAFOR AB, priority 2012, published 2015)
Positions of bridges follow the written chain, without caps; N, C: chain ends. Non-standard residues stand in square brackets, D forms with d. Residues, ends and D or L forms follow the SMILES beside them. Orn = NCCC[C@H](N)C(=O)O; Mpa = O=C(O)CCS

Columns and labels:
[1] = tested on: Human uterine smooth muscle cells; assay: Intracellular Ca2+ with Fluo-4, live cell confocal imaging; type: cell-based
Experimental: Human uterine smooth muscle cells were established in a culture. Intracellular Ca^2+ was measured with the calcium indicator dye Fluo-4 and live cell imaging with confocal microscopy was established for the cells.
It was further investigated if the main transport mechanism of inositol-3 phosphate (IP3) stimulated Ca^2+ transport of the endoplasmatic reticulum. To study this pathway, 2-Aminoethoxydiphenyl borate (2-APB) was tested on Ca^2+ after 30 min of incubation with a concentration of 100 μM.
To further characterize the interaction between oxytocin and DF01 the effect of the oxytocin receptor antagonist Atosiban was used and the cells subjected to the DF01 enhanced oxytocin effect on Ca^2+ transport.

[2] = subcutaneous; species not stated; cited from earlier work

Compound: CCOc1ccc(C[C@H]2NC(=O)CCSSC[C@@H](C(=O)N3CCC[C@H]3C(=O)N[C@@H](CCCN)C(=O)NCC(N)=O)NC(=O)[C@H](CC(N)=O)NC(=O)[C@H]([C@@H](C)O)NC(=O)[C@H]([C@@H](C)CC)NC2=O)cc1 [Atosiban] ([Mpa][dY](Et)ITNCP[Orn]G-NH2; disulfide 1-6)
- effect on oxytocin and oxytocin/DF01 effect on Ca2+ transport ([1]; 10^−6 M): clearly inhibited

Compound: heparin
- corresponding bioavailability [2]: about 10%

Compound: CC[C@H](C)[C@@H]1NC(=O)[C@H](Cc2ccc(O)cc2)NC(=O)[C@@H](N)CSSC[C@@H](C(=O)N2CCC[C@H]2C(=O)N[C@@H](CC(C)C)C(=O)NCC(N)=O)NC(=O)[C@H](CC(N)=O)NC(=O)[C@H](CCC(N)=O)NC1=O [oxytocin]
- Ca2+-influx to the cytosol ([1]; cells treated with oxytocin): demonstrated
- oxytocin concentration giving maximum effect on Ca2+-influx ([1]; dose-dependent effect): 0.05 IU/ml

Compound: NCCOB(c1ccccc1)c1ccccc1 [2-APB, 2-Aminoethoxydiphenyl borate]
- effect on oxytocin and oxytocin/DF01 stimulated Ca2+-transport ([1]; 100 μM, after 30 min of incubation): decreased strongly
